The results in this text go back to ChEMBL document CHEMBL3046875, “Potential cytotoxic and apoptosis inducing agents: synthesis and evaluation of methoxy-substituted chalcones against human lung and cervical cancers” (Med Chem Res, 2013).

For assay [1], the system named is A549. Nature of the assay: Cell cycle arrest in Homo sapiens (human) A549 cells assessed as accumulation at G0/G1 phase at IC50 after 48 hr by propidium iodide staining-based flow cytometric analysis (reference value: 74.9%). The class given is functional. In general terms: In flow cytometry, cells or beads pass a laser one at a time.
The test system of assay [2] is HeLa. Description: Cell cycle arrest in Homo sapiens (human) HeLa cells assessed as accumulation at G0/G1 phase at IC50 after 48 hr by propidium iodide staining-based flow cytometric analysis (reference value: 63.3%). The class given is functional.
For assay [3], the system named is A549. Description: Cytotoxicity against Homo sapiens (human) A549 cells assessed as cell viability after 72 hr by MTT assay. The following applies: A549, 72 h. The class given is functional, cell-based.
Another assay has as its system HCT-15. Description: Cytotoxicity against Homo sapiens (human) HCT15 cells assessed as cell viability after 72 hr by MTT assay. The assay is classed as functional, cell-based. The following applies: HCT-15, 72 h. For orientation: Formazan colour is commonly taken as a measure of viable cells.
Assay [4] relates to HeLa. Nature of the assay: Cytotoxicity against Homo sapiens (human) HeLa cells assessed as cell viability after 72 hr by MTT assay. The class given is functional, cell-based.
Assay [5] relates to A549. Description: Cell cycle arrest in Homo sapiens (human) A549 cells assessed as accumulation at sub G0 phase at IC50 after 48 hr by propidium iodide staining-based flow cytometric analysis (reference value: 1.37%). The assay is classed as functional.
The subject of assay [6] is HeLa. Description: Cell cycle arrest in Homo sapiens (human) HeLa cells assessed as accumulation at sub G0 phase at IC50 after 48 hr by propidium iodide staining-based flow cytometric analysis (reference value: 0.88%). The assay is classed as functional.
Assay [7] has as its system A549. Description: Cell cycle arrest in Homo sapiens (human) A549 cells assessed as accumulation at G2/M phase at IC50 after 48 hr by propidium iodide staining-based flow cytometric analysis (reference value: 11.03%). The class given is functional.
Assay [8] has as its system HeLa. Nature of the assay: Cell cycle arrest in Homo sapiens (human) HeLa cells assessed as accumulation at G2/M phase at IC50 after 48 hr by propidium iodide staining-based flow cytometric analysis (reference value: 22.68%). The class given is functional.
Assay [9] deals with A549. Nature of the assay: Cell cycle arrest in Homo sapiens (human) A549 cells assessed as accumulation at S phase at IC50 after 48 hr by propidium iodide staining-based flow cytometric analysis (reference value: 12.83%). The assay is classed as functional.
In assay [10] the test system is HeLa. Description: Cell cycle arrest in Homo sapiens (human) HeLa cells assessed as accumulation at S phase at IC50 after 48 hr by propidium iodide staining-based flow cytometric analysis (reference value: 14.14%). The assay is classed as functional.
The subject of assay [11] is A549. Nature of the assay: Cell cycle arrest in Homo sapiens (human) A549 cells assessed as accumulation at sub G0 phase at 2 uM after 48 hr by propidium iodide staining-based flow cytometric analysis (reference value: 1.37%). The class given is functional.
The test system of assay [12] is HeLa. Nature of the assay: Cell cycle arrest in Homo sapiens (human) HeLa cells assessed as accumulation at sub G0 phase at 2 uM after 48 hr by propidium iodide staining-based flow cytometric analysis (reference value: 0.88%). The class given is functional.
The subject of assay [13] is A549. Description: Cell cycle arrest in Homo sapiens (human) A549 cells assessed as accumulation at G2/M phase at 2 uM after 48 hr by propidium iodide staining-based flow cytometric analysis (reference value: 11.03%). The class given is functional.
The subject of assay [14] is HeLa. Nature of the assay: Cell cycle arrest in Homo sapiens (human) HeLa cells assessed as accumulation at G2/M phase at 2 uM after 48 hr by propidium iodide staining-based flow cytometric analysis (reference value: 22.68%). The assay is classed as functional.
The subject of assay [15] is HeLa. Description: Cell cycle arrest in Homo sapiens (human) HeLa cells assessed as accumulation at S phase at 2 uM after 48 hr by propidium iodide staining-based flow cytometric analysis (reference value: 14.14%). The class given is functional.
For assay [16], the system named is HeLa. Nature of the assay: Cell cycle arrest in Homo sapiens (human) HeLa cells assessed as accumulation at G0/G1 phase at 2 uM after 48 hr by propidium iodide staining-based flow cytometric analysis (reference value: 63.3%). The assay is classed as functional.

In general, IC50 refers to the concentration that inhibits the measured activity by half. In the case of `COc1cc(/C=C/C(=O)c2ccccc2F)cc(OC)c1`, the Activity in the assay with A549 [1] worked out at 2.66%; with HeLa [2] it was 70.2%; in the assay with A549 [5], 61.59%; in the assay on HeLa [6] it was 9.11%; in the assay on A549 [7], 2.22%; in the assay on HeLa [8], 26.68%. The Activity in the assay on A549 [9] was found to be 9.85%; in the assay on HeLa [10] it was 18.21%. The IC50 with A549 [3] was 43.6 nM; with HCT-15, 20.9 nM; with HeLa [4] it was 62.9 nM.
`COc1ccc(C(=O)/C=C/c2c(OC)cc(OC)cc2OC)c(F)c1`: the half-inhibitory concentration (IC50) in the assay with A549 [3], in the assay with HCT-15 and in the assay with HeLa [4] was over 100000 nM each time.
As for `COc1cc(/C=C/C(=O)c2ccc(OC)cc2F)cc(OC)c1`, the IC50 in the assay with A549 [3] was determined as 101 nM; in the assay on HCT-15, 55.3 nM; in the assay on HeLa [4] it was 243 nM.
In the same order, the values of `COc1ccc(C(=O)/C=C/c2cc(OC)c(OC)cc2OC)c(F)c1` are 202 nM, 72.2 nM and over 100000 nM.
In the same order, the values of `COc1ccc(C(=O)/C=C/c2ccc(OC)cc2OC)c(F)c1` are over 100000 nM, 72.2 nM and 260 nM.
For the compound `COc1ccc(C(=O)/C=C/c2cc(OC)c(OC)c(OC)c2)c(F)c1`, the IC50 in the assay on A549 [3] is 108 nM; with HCT-15, 50.5 nM; in the assay on HeLa [4] it was 144 nM.
In the same order, the values of `COc1ccc(C(=O)/C=C/c2ccc(OC)c(OC)c2OC)c(F)c1` are 108 nM, 31.7 nM and 211 nM.
With `COc1ccc(/C=C/C(=O)c2ccccc2F)c(OC)c1`, the Activity in the assay on A549 [1] was determined as 5.64%; in the assay on HeLa [2] it was 22.61%; in the assay with A549 [5], 20.48%; in the assay with HeLa [6] it was 29.37%; in the assay on A549 [7] it was 6.18%; in the assay on HeLa [8], 56.9%. Also, the results for the Activity in the assay on A549 [9] and in the assay on HeLa [10] were 59.98% and 12.64%, respectively. Moreover, the IC50 in the assay on A549 [3] is 87.3 nM; in the assay on HCT-15, 55.9 nM; in the assay with HeLa [4], 175 nM.
Take `COc1cc(OC)c(OC)cc1/C=C/C(=O)c1ccccc1F`: the half-inhibitory concentration (IC50) in the assay with A549 [3] is 79 nM; in the assay with HCT-15, 55.3 nM; in the assay with HeLa [4] it was 293 nM.
With `COc1ccc(OC)c(/C=C/C(=O)c2ccccc2F)c1`, the Activity in the assay on A549 [1] amounted to 1.36%; in the assay with HeLa [2], 7.9%; with A549 [5], 20.31%; with HeLa [6], 27.52%; in the assay on A549 [7] it was 16.84%; in the assay with HeLa [8] it was 35.28%. The results for the Activity in the assay with A549 [9] and in the assay on HeLa [10] were 89.78% and 0.94%, respectively. Besides, the IC50 with A549 [3] came out at 114 nM; in the assay with HCT-15 it was 61.1 nM; in the assay on HeLa [4], 96.1 nM.
As to `COc1cc(OC)c(/C=C/C(=O)c2ccccc2F)c(OC)c1`, the values for the IC50 in the assay with A549 [3], with HCT-15 and in the assay on HeLa [4] were over 100000 nM, 79 nM and 50.6 nM, respectively.
Consider `COc1cc(/C=C/C(=O)c2ccccc2F)cc(OC)c1OC`, for which the results for the IC50 in the assay on A549 [3], in the assay with HCT-15 and in the assay with HeLa [4] were over 100000 nM, 134 nM and 228 nM, respectively.
Consider `COc1cccc2c1C(=O)c1c(O)c3c(c(O)c1C2=O)C[C@@](O)(C(=O)CO)C[C@@H]3O[C@H]1C[C@H](N)[C@H](O)[C@H](C)O1.Cl` [DOXORUBICIN HYDROCHLORIDE], for which the Activity in the assay on A549 [11] came to 1.34%; with HeLa [12], 61.55%; in the assay on A549 [13] it was 0.98%; in the assay with HeLa [14], 36.19%; in the assay with HeLa [15], 55.74%; in the assay with HeLa [16] it was 30.86%.
